From patent US5011836A, “Agents for the treatment of acute and chronic obstructive respiratory passage diseases” (Dr. Karl Thomae GmbH, priority 1988, dated 1991)
Entries after “also recorded” stand apart in the source; their conditions may differ.

Legend:
[1] = target: T1, muscarinic receptors, submandible (M3) (Rattus norvegicus, UniProt P08483); assay: Receptor binding test in vitro, 3H-N-methylscopolamine, submandible (M3); parameters: species or system Sprague-Dawley rat; conditions: 0.3 nanomolar 3H-N-methylscopolamine, rat submandible homogenate, 30° C., 45 minutes, pH 7.4; read-out: IC50 3H-NMS Submandible (M3)
T1 construct: After removing the heart, submandible and cerebral cortex; from tissue; host or cells: Sprague-Dawley rat submandibular gland ('submandible') homogenate
T1 sequence (P08483 whole entry): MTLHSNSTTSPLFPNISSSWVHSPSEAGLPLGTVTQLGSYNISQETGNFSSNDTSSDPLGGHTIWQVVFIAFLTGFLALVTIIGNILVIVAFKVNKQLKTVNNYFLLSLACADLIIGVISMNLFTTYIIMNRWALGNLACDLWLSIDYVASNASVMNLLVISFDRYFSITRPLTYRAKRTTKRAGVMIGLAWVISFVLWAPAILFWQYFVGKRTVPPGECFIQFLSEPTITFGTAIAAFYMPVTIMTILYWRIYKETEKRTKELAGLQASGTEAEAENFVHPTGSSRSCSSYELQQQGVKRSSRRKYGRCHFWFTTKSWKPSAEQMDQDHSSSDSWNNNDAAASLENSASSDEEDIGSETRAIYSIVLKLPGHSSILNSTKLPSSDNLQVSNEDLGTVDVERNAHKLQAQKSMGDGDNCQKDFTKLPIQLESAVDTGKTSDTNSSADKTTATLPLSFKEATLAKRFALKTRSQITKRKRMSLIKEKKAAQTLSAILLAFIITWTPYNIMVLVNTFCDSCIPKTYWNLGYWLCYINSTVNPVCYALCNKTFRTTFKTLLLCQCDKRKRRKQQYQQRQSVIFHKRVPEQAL
Description: (§1) Sprague-Dawley rats having body weights of 180-220 g were used as organ donors. After removing the heart, submandible and cerebral cortex, all further steps were carried out in ice-cold Hepes-HCl buffer (pH 7.4; 100 m molar NaCl, 10 m molar MgCl2). The entire heart was comminuted using a pair of scissors. All organs were then homogenised in a Potter.
(§2) For the binding test, the organ homogenates were diluted in the following manner(ratio by volume):
(§3) The incubation of the organ homogenates was carried out at a defined concentration of the radioligand and a number of concentrations of the non-radioactive test substances in Eppendorf centrifuge tubes at 30° C. The incubation period was 45 minutes. 0.3 nanomolar ^3 H-N-methylscopolamine (^3 H-NMS, heart and submandible) or 1 nanomolar ^3 H-pirenzepine (^3 H-PZ, cerebrum) were used as the radioligand. The incubation was ended by addition of ice-cold buffer with subsequent vacuum filtration. The filter was washed with cold buffer and its radioactivity was determined. This represents the total of specific and non-specific binding of ^3 H-NMS or ^3 H-PZ. The proportion of non-specific binding was defined as that radioactivity which was bound in the presence of 1μ molar quinuclidinylbenzylate. Four-fold determinations were always carried out. The IC50 values of non-labelled test substances were determined graphically. They represent that concentration of the test substance at which the specific binding of ^3 H-NMS or ^3 H-PZ to the muscarinic receptors in the various organs was inhibited by 50%.

[2] = test system: effect of acetylcholine on heart rate; assay: Inhibition of the effect of acetylcholine on the heart rate (ECG), anaesthetised guinea-pigs; format: in vivo; conditions: Cavia porcellus, iv, 5 min, anaesthetised guinea-pig, 10 μg/kg acetylcholine i.v. and intraarterially 5 minutes after test substance, read-out: -log DE50 Heart (converted)
Description: (§4) 5 minutes after administration of the test substance to anaesthetised guinea-pigs, 10 μg/kg of acetylcholine was injected intravenously and, at the same time, intraarterially. At the same time, the heart rate was recorded by extracorporeal derivation of the ECG, the respiratory passage resistance by Konzett-Rossler and the contraction of the exposed bladder directly. For the inhibition of the effect of acetylcholine on the organs examined, dosage-activity curves were recorded and -log ED50 values were determined therefrom.

[3] = target: T2, muscarinic receptors, cortex (M1) (Rattus norvegicus, UniProt P08482); assay: Receptor binding test in vitro, 3H-pirenzepine, cerebral cortex (M1); parameters: species or system Sprague-Dawley rat; conditions: for IC50: 1 nanomolar 3H-pirenzepine, rat cerebral cortex homogenate, 30° C., 45 minutes, pH 7.4, read-out: IC50 3H-PZ Cortex (M1); for M1-selectivity in receptor binding studies (in words): cortex M1 compared to heart and submandible
T2 construct: After removing the heart, submandible and cerebral cortex; from tissue; host or cells: Sprague-Dawley rat cerebral cortex homogenate
T2 sequence (P08482 1-460): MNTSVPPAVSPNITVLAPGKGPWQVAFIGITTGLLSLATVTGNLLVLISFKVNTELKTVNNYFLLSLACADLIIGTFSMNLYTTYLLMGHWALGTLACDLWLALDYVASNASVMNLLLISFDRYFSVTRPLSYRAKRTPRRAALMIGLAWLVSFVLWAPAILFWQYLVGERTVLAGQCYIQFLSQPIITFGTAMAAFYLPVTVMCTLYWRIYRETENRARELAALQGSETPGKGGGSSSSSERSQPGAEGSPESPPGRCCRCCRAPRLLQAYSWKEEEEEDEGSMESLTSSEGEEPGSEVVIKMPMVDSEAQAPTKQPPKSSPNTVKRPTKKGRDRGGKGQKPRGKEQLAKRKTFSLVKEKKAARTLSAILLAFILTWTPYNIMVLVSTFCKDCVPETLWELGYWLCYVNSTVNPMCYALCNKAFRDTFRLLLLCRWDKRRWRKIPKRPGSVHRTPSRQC
Description: as §1, §2, §3

[4] = test system: effect of acetylcholine on bronchi; assay: Inhibition of the effect of acetylcholine on the bronchi (respiratory passage resistance, Konzett-Rossler), anaesthetised guinea-pigs; format: in vivo, guinea-pig; conditions: for ED50: Cavia porcellus, iv, 5 min, read-out: -log DE50 Bronchi; for selectivity of inhibition of acetylcholine-induced bronchoconstriction versus effects on heart and bladder (in words): bronchi compared to heart and bladder, guinea-pig
Description: as §4

[5] = test system: effect of acetylcholine on bladder; assay: Inhibition of the effect of acetylcholine on the bladder (contraction of the exposed bladder), anaesthetised guinea-pigs; format: in vivo; conditions: Cavia porcellus, iv, 5 min; anaesthetised guinea-pig; 10 μg/kg acetylcholine i.v. and intraarterially 5 minutes after test substance; read-out: -log DE50 Bladder (converted)
Description: as §4

[6] = target: T3, muscarinic receptors, heart (M2) (Rattus norvegicus, UniProt P10980); assay: Receptor binding test in vitro, 3H-N-methylscopolamine, heart (M2); parameters: species or system Sprague-Dawley rat
T3 construct: After removing the heart, submandible and cerebral cortex; from tissue; host or cells: Sprague-Dawley rat entire heart homogenate
T3 sequence (P10980 1-466): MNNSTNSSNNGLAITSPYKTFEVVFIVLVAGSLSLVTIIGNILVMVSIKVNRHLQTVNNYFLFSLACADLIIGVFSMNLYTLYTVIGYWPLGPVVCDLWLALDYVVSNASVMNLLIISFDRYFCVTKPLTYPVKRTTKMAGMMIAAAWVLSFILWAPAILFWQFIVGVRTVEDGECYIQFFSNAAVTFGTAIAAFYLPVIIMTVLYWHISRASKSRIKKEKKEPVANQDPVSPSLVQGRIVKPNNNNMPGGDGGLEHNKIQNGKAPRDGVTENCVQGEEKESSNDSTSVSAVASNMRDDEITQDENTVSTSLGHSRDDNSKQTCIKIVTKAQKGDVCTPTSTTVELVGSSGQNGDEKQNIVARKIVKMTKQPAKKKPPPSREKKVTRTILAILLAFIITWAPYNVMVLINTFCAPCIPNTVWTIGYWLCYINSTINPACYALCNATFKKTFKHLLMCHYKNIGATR
Description: as §1, §2, §3

Row | SMILES | IC50 [1] | ED50 [2] | IC50 [3] | M1-selectivity in receptor binding studies (in words) [3] | ED50 [4] | selectivity of inhibition of acetylcholine-induced bronchoconstriction versus effects on heart and bladder (in words) [4] | ED50 [5] | IC50 [6]
1 | CN1CCC(NC(=O)C2c3ccccc3NC(=O)c3ccccc32)CC1 (racemic) [Substance A, 5,11-dihydro-11-[[(1-methyl-4-piperidinyl)amino]carbonyl]-6H-dibenz[b,e]azepin-6-one] | 70 nM | 0.955 µmol/kg | 6 nM | marked M1 -selectivity; also recorded: lower IC50 values for the cortex M1 receptor compared to muscarinic receptors in preparations of the heart and submandible; also recorded: M1 -selectivity in in vitro receptor binding studies | 0.055 µmol/kg | marked selectivity for the inhibition of the bronchoconstriction; also recorded: even at dosages at which no effects on the heart and bladder are observed; also recorded: more strongly inhibit the cholinergically induced bronchoconstriction in functional tests than frequency effects on the heart or the bladder contraction | 0.537 µmol/kg | 400 nM
2 | CN1CCC(CC(=O)C2c3ccccc3NC(=O)c3ccccc32)CC1 (racemic) [Substance B, 5,11-dihydro-11-[(1-methyl-4-piperidinyl)acetyl]-6H-dibenz[b,e]azepin-6-one] | 13 nM | 0.851 µmol/kg | 2.5 nM | marked M1 -selectivity; also recorded: lower IC50 values for the cortex M1 receptor compared to muscarinic receptors in preparations of the heart and submandible; also recorded: M1 -selectivity in in vitro receptor binding studies | 0.182 µmol/kg | marked selectivity for the inhibition of the bronchoconstriction; also recorded: even at dosages at which no effects on the heart and bladder are observed; also recorded: more strongly inhibit the cholinergically induced bronchoconstriction in functional tests than frequency effects on the heart or the bladder contraction | 0.813 µmol/kg | 42 nM
3 | CN1CCN(CC(=O)C2c3ccccc3NC(=O)c3ccccc32)CC1 (racemic) [Substance C, 5,11-dihydro-11-[(4-methyl-1-piperazinyl)acetyl]-6H-dibenz[b,e]azepin-6-one] | 100 nM | 1.78 µmol/kg | 8 nM | marked M1 -selectivity; also recorded: lower IC50 values for the cortex M1 receptor compared to muscarinic receptors in preparations of the heart and submandible; also recorded: M1 -selectivity in in vitro receptor binding studies | 0.275 µmol/kg | marked selectivity for the inhibition of the bronchoconstriction; also recorded: even at dosages at which no effects on the heart and bladder are observed; also recorded: more strongly inhibit the cholinergically induced bronchoconstriction in functional tests than frequency effects on the heart or the bladder contraction | 5.37 µmol/kg | 800 nM
4 | CN1CCC(NC(=O)C2c3ccccc3NC(=O)c3ccccc32)CC1 (single isomer, unassigned; (+)) [Substance D, (+)-5,11-dihydro-11-[[(1-methyl-4-piperidinyl)amino]carbonyl]-6H-dibenz[b,e]azepin-6-one] | 50 nM | 0.407 µmol/kg | 3 nM | marked M1 -selectivity; also recorded: lower IC50 values for the cortex M1 receptor compared to muscarinic receptors in preparations of the heart and submandible; also recorded: M1 -selectivity in in vitro receptor binding studies | 0.0331 µmol/kg | even at dosages at which no effects on the heart and bladder are observed; also recorded: more strongly inhibit the cholinergically induced bronchoconstriction in functional tests than frequency effects on the heart or the bladder contraction | 0.309 µmol/kg | 300 nM
